We go through one molecule from patent publication US8901035B2, “Herbicidal compositions comprising 4-amino-3-chloro-5-fluoro-6-(4-chloro-2-fluoro-3-methoxyphenyl) pyridine-2-carboxylic acid or a derivative thereof and cellulose biosynthesis inhibitor herbicides” (Dow AgroSciences LLC, priority 2012, dated 2014).

For assay [1], the system named is Ipomoea hederacea (L.) Jacq. (IPOHE). Kind of assay: Pre-emergence soil-applied herbicidal mixtures for weed control (greenhouse). Type of assay: in vivo.
In assay [2] the test system is Setaria faberi Herrm. (SETFA). The assay is described as above. The class given is in vivo.
Setting [3] is: Compound A Benzyl Ester 16 g ae/ha alone.
[4] abbreviates: Compound A Benzyl Ester 32 g ae/ha alone.

Consider `COc1c(Cl)ccc(-c2nc(C(=O)OCc3ccccc3)c(Cl)c(N)c2F)c1F` [Compound A Benzyl Ester, benzyl ester of 4-amino-3-chloro-5-fluoro-6-(4-chloro-2-fluoro-3-methoxy-phenyl)pyridine-2-carboxylic acid], for which the “Visual Weed Control (%) - 28 DAA IPOHE Obs” value in assay [1] (setting [3]) is reported as 13%; in assay [1] (setting [4]), 23%. Besides, the “Visual Weed Control (%) - 27 DAA SETFA Obs” value turned out to be 8% in assay [2] (setting [3]) and 15% in assay [2] (setting [4]).
